The results in this text go back to patent US9655362B2, “Fungicidal composition and method for controlling plant diseases” (ISHIHARA SANGYO KAISHA, LTD., priority 2003, dated 2017).

“And” between values parts separate entries of the source, which are not always exact repeats. Identical values can stand only once.

In one data set the test system is Erysiphe graminis. The experiment in a line: Test on preventive effect against wheat powdery mildew. In kind it is in vivo. Also on record: key: % = treated/untreated average lesion area ×100. Here is the method:
Wheat (cultivar: […] After the chemical solution dried, conidia of Erysiphe graminis were dusted and inoculated and maintained in a constant temperature chamber at 20° C. […] The average lesion area in the non-treated plot was determined in the same manner as for the treated plot except that water was applied by a spray gun instead of the chemical solution. Disease rate=(a/b)×100 a: average lesion area in the treated plot b: average lesion area in the non-treated plot Theoretical values were calculated in accordance with the Colby's formula. The fungicidal composition of the present invention has a synergistic effect regarding the test on preventive effect against wheat powdery mildew, when the experimental value is lower than the theoretical value.

In the next data set the test system is Sphaerotheca cucurbitae. Nature of the data set: Test on preventive effect against cucumber powdery mildew. The format is in vivo. Also on record: scale not given here. Here is the method:
Cucumber (cultivar: Suyo) was cultivated in a plastic pot having a diameter of 7.5 cm, and when it reached 1.5-leaf stage, 10 ml of a chemical solution having the compound of the present invention adjusted to a prescribed concentration, was applied by a spray gun. After the chemical solution dried, a suspension of conidia of Sphaerotheca cucurbitae was sprayed and inoculated and maintained in a constant temperature chamber at 20° C. From 6 to 11 days after the inoculation, the area of sporulation was investigated, and the disease rate was determined in the same manner as in Test Example 3, and the results are shown in Tables 54 to 96. The average lesion area in the non-treated plot was determined in the same manner as for the treated plot except that water was applied by a spray gun instead of the chemical solution.
Further, theoretical values by the Colby's formula are shown in brackets in Tables 54 to 96.

Setting [1] is: other fungicide alone, dose 1.6 g/ha.
Where [2] appears, read: other fungicide alone, concentration 31 ppm.
Setting [3] is: other fungicide alone, concentration 63 ppm.
Setting [4] is: Compound No. alone, concentration 16 ppm.
The mark [5] stands for this setting: single agent, 4 ppm, area of sporulation 6 to 11 days after inoculation.
[6] abbreviates: single agent, 8 ppm, area of sporulation 6 to 11 days after inoculation.
The mark [7] stands for this setting: single agent, 1 ppm, area of sporulation 6 to 11 days after inoculation.
The mark [8] stands for this setting: single agent, 2 ppm, area of sporulation 6 to 11 days after inoculation.
[9] abbreviates: other fungicide alone, dose 12.5 g/ha.
Setting [10] is: other fungicide alone, concentration 8 ppm.
Setting [11] is: other fungicide alone, concentration 4 ppm.
[12] abbreviates: other fungicide alone, concentration 16 ppm.
[13] abbreviates: other fungicide alone, dose 3.1 g/ha.
Setting [14] is: other fungicide alone, dose 6.3 g/ha.
[15] abbreviates: other fungicide alone, concentration 2 ppm.

Take `Fc1ccc([C@]2(Cn3cncn3)O[C@H]2c2ccccc2Cl)cc1` (racemic) [Epoxiconazole]: the Disease rate with Erysiphe graminis (setting [1]) worked out at 100.
With `CO/C=C(/C(=O)OC)c1ccccc1Oc1cc(Oc2ccccc2C#N)ncn1` [Azoxystrobin], the Disease rate with Sphaerotheca cucurbitae (setting [2]) is 100 and 80.4; in the data set on Sphaerotheca cucurbitae (setting [3]), 100; in the data set with Sphaerotheca cucurbitae (other fungicide alone, concentration 125 ppm), 100.
The term melting point denotes the temperature, or range, at which the solid turns liquid. `COc1cc(C)c(C(=O)c2c(F)ncc(C)c2I)c(OC)c1OC` [Compound No. 18, 3-(2,3,4-trimethoxy-6-methylbenzoyl)-2-fluoro-4-iodo-5-methylpyridine] registered a melting point of 140 to 141 °C.
In turn, `COc1cc(C)c(C(=O)c2c(OC)ncc(Br)c2Cl)c(OC)c1OC` [Compound No. 23, 3-(2,3,4-trimethoxy-6-methylbenzoyl)-5-bromo-4-chloro-2-methoxypyridine] registered a melting point of 84 to 87 °C. In the data set with Sphaerotheca cucurbitae (Compound No. alone, concentration 2 ppm), this compound gave a Disease rate of 100. In the data set with Sphaerotheca cucurbitae (setting [4]), this compound came in with a Disease rate of 30.7. This compound also yielded a Disease rate with Sphaerotheca cucurbitae (setting [5]) of 79.2. The compound also returned a Disease rate in the data set with Sphaerotheca cucurbitae (setting [6]) of 19.8. The compound also returned a Disease rate with Sphaerotheca cucurbitae (single agent, 16 ppm, area of sporulation 6 to 11 days after inoculation) of 2.4.
For the compound `COc1cc(C)c(C(=O)c2c(OC)ncc(Cl)c2C)c(OC)c1OC` [Compound No. 35, 3-(2,3,4-trimethoxy-6-methylbenzoyl)-5-chloro-2-methoxy-4-methylpyridine], the Disease rate in the data set with Sphaerotheca cucurbitae (setting [4]) is 80.4; in the data set on Sphaerotheca cucurbitae (setting [7]), 56.8; in the data set with Sphaerotheca cucurbitae (setting [8]), 14.2.
The compound `COc1cc(C)c(C(=O)c2c(Cl)cnc(Cl)c2C(F)(F)F)c(OC)c1OC` [Compound No. 39, 4-(2,3,4-trimethoxy-6-methylbenzoyl)-2,5-dichloro-3-trifluoromethylpyridine] came in with a melting point of 106 to 109 °C. Moreover, the Disease rate in the data set on Erysiphe graminis (Compound No. alone, dose 1.6 g/ha) amounted to 58.8. The same compound displayed a Disease rate in the data set on Sphaerotheca cucurbitae (setting [4]) of 20. Moreover, in the data set on Sphaerotheca cucurbitae (setting [5]), the Disease rate is recorded as 32.0. In the data set on Sphaerotheca cucurbitae (setting [6]), this compound had a Disease rate of 14.2.
Compound `COc1cc(C)c(C(=O)c2c(OC)cnc(Cl)c2C(F)(F)F)c(OC)c1OC` [Compound No. 40, 4-(2,3,4-trimethoxy-6-methylbenzoyl)-2-chloro-3-trifluoromethyl-5-methoxypyridine] had a melting point of 117 to 119 °C. This compound displayed a Disease rate with Sphaerotheca cucurbitae (setting [7]) of 71.0. The compound further yielded a Disease rate with Sphaerotheca cucurbitae (setting [8]) of 42.6.
As to `COc1cc(C)c(C(=O)c2c(OC)cncc2C(F)(F)F)c(OC)c1OC` [Compound No. 122, 4-(2,3,4-trimethoxy-6-methylbenzoyl)-3-methoxy-5-trifluoromethylpyridine], the melting point was 103 to 106 °C.
On to `Cc1ccc(-c2c(Cl)nc(C#N)n2S(=O)(=O)N(C)C)cc1` [Cyazofamid], for which the Disease rate with Sphaerotheca cucurbitae (setting [2]) and with Sphaerotheca cucurbitae (setting [3]) was 100 in each case.
For `CC(C1CC1)C(O)(Cn1cncn1)c1ccc(Cl)cc1` (centres unmarked) [Cyproconazole], in the data set on Erysiphe graminis (setting [9]), the Disease rate came out at 15.0.
As for `CC(Cc1ccc(C(C)(C)C)cc1)CN1C[C@@H](C)O[C@@H](C)C1` (some centres unmarked) [Fenpropimorph], the Disease rate with Erysiphe graminis (other fungicide alone, dose 25 g/ha) is 100.
Turning to `O=c1c2cc(F)ccc2nc(-n2cncn2)n1-c1ccc(Cl)cc1Cl` [Fluquinconazole], the Disease rate in the data set with Erysiphe graminis (other fungicide alone, dose 50 g/ha) amounted to 30.0; in the data set on Erysiphe graminis (other fungicide alone, dose 200 g/ha) it was 7.5; in the data set on Erysiphe graminis (other fungicide alone, dose 400 g/ha) it was 2.5.
As to `Clc1ccc(CSC(Cn2cncn2)=Nc2ccc(Cl)cc2Cl)cc1` [Imibenconazole], the Disease rate in the data set with Sphaerotheca cucurbitae (setting [10]) was 100.
`CCCCCCCCCCCCc1ccc(S(=O)(=O)O)cc1.CCCCCCCCCCCCc1ccc(S(=O)(=O)O)cc1.CCCCCCCCCCCCc1ccc(S(=O)(=O)O)cc1.NC(N)=NCCCCCCCCNCCCCCCCCN=C(N)N` [Iminoctadine albesilate]: the Disease rate was 85.9 and 93.8 with Sphaerotheca cucurbitae (setting [11]); 83.9 and 60.7 and 45.0 in the data set on Sphaerotheca cucurbitae (setting [10]); 35.3 and 30.0 and 49.4 in the data set with Sphaerotheca cucurbitae (setting [12]).
With `CC#Cc1cc(C)nc(Nc2ccccc2)n1` [Mepanipyrim], the Disease rate in the data set on Sphaerotheca cucurbitae (setting [10]) amounted to 100.
For the compound `CC1(C)CCC(Cc2ccc(Cl)cc2)C1(O)Cn1cncn1` (centres unmarked) [Metconazole], the results for the Disease rate with Erysiphe graminis (setting [1]), in the data set on Erysiphe graminis (setting [13]) and in the data set with Erysiphe graminis (setting [14]) were 44.1, 19.6 and 4.9, respectively.
On to `COc1cc(C)c(C(=O)c2c(OC)ccc(Br)c2C)c(OC)c1OC` [Metrafenone], for which the Disease rate in the data set with Erysiphe graminis (setting [13]) is reported as 100; with Erysiphe graminis (setting [14]), 80.0; in the data set on Erysiphe graminis (setting [9]), 60.0.
In the case of `CC1(C)COC(C)(CCCc2ccc(Cl)cc2)N1C(=O)n1ccnc1.CC1(C)COC(C)(CCCc2ccc(Cl)cc2)N1C(=O)n1ccnc1.O=C(O)/C=C/C(=O)O` (centres unmarked) [Oxpoconazole fumarate], the Disease rate in the data set on Sphaerotheca cucurbitae (setting [10]) was 100 and 80.0; with Sphaerotheca cucurbitae (setting [12]), 100 and 60.0; in the data set with Sphaerotheca cucurbitae (setting [2]), 45.5 and 30.0.
On to `CC1(C)COC(C)(CCCc2ccc(Cl)cc2)N1C(=O)n1ccnc1` (centres unmarked) [Oxpoconazole], for which the Disease rate in the data set on Sphaerotheca cucurbitae (setting [6]) turned out to be 44.5.
On to `CCCC1COC(Cn2cncn2)(c2ccc(Cl)cc2Cl)O1` (centres unmarked) [Propiconazole], for which the Disease rate with Erysiphe graminis (setting [13]) worked out at 100; in the data set on Erysiphe graminis (setting [9]), 11.6.
In the case of `CC(C)(C)C(O)(CCc1ccc(Cl)cc1)Cn1cncn1` (centres unmarked) [Tebuconazole], the values for the Disease rate in the data set on Sphaerotheca cucurbitae (setting [15]) and in the data set with Sphaerotheca cucurbitae (setting [11]) were 56.8 and 71.0, respectively.
Take `FC(F)C(F)(F)OCC(Cn1cncn1)c1ccc(Cl)cc1Cl` (centres unmarked) [Tetraconazole]: the Disease rate in the data set on Erysiphe graminis (setting [13]) came to 80.0; in the data set on Erysiphe graminis (setting [14]), 35.0; in the data set on Sphaerotheca cucurbitae (setting [15]) it was 56.8; with Sphaerotheca cucurbitae (setting [11]), 56.8.
In the case of `CC(C)(C)C(O)C(Oc1ccc(Cl)cc1)n1cncn1` (centres unmarked) [Triadimenol], the Disease rate is reported as 65 in the data set on Erysiphe graminis (setting [13]) and 19.0 with Erysiphe graminis (setting [9]).
As for Polyoxins, the Disease rate with Sphaerotheca cucurbitae (setting [2]) is 100 and 80.4 and 80.0.
